# What was measured:
# Carbonic anhydrase 1 [1] = biological target: T1, Carbonic anhydrase 1 (Homo sapiens, UniProt P00915); assay: Esterase Activity Assay; conditions: pH 7.4
# Protocol: (§1) The enzymatic reaction, in a total volume of 3 mL, contained 1.4 mL of 0.05 M tris-SO4 buffer (pH 7.4), 1 mL of 3 mM 4-nitrophenylacetate, 0.5 mL H2O and 0.1 mL enzyme solution. A reference measurement was obtained by preparing the same cuvette without any enzyme solution.
# Carbonic anhydrase 2 [2] = biological target: T2, Carbonic anhydrase 2 (Homo sapiens, UniProt P00918); assay: Esterase Activity Assay; conditions: pH 7.4
# Protocol: as §1
# Carbonic anhydrase 1 [3] = biological target: T1, Carbonic anhydrase 1; assay: Enzyme Activity Assay
# Carbonic anhydrase 2 [4] = biological target: T2, Carbonic anhydrase 2; assay: Enzyme Activity Assay
# Carbonic anhydrase 1 [5] = biological target: T1, Carbonic anhydrase 1; assay: Hydratase Activity Assay
# Carbonic anhydrase 2 [6] = biological target: T2, Carbonic anhydrase 2; assay: Hydratase Activity Assay
# T1 sequence (P00915 whole entry): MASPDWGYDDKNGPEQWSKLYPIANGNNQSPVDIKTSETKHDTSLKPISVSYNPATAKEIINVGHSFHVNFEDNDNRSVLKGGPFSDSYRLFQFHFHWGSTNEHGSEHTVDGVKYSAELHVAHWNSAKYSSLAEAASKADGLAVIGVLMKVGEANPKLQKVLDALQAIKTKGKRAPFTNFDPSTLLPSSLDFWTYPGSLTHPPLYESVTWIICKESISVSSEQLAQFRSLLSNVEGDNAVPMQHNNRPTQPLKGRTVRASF
Compound,IC50 (Carbonic anhydrase 1 [1]) [nM],IC50 (Carbonic anhydrase 2 [2]) [nM],Ki (Carbonic anhydrase 1 [3]) [nM],Ki (Carbonic anhydrase 2 [4]) [nM],IC50 (Carbonic anhydrase 1 [5]) [nM],IC50 (Carbonic anhydrase 2 [6]) [nM]
"NS(=O)(=O)c1nnc(NC(=O)c2nn(-c3ccc(I)cc3)c(-c3ccccc3)c2C(=O)c2ccccc2)s1 [4-Benzoyl-1-(4-iodophenyl)-5-phenyl-N-(5-sulphamoyl-1,3,4-thiadiazol-2-yl)-1H-pyrazole-3-carboxamide (10)]",350,50,360,56,270,180
"NS(=O)(=O)c1nnc(NC(=O)c2nn(-c3ccc(NN=C(C(=O)c4ccccc4)C(=O)c4ccccc4)cc3)c(-c3ccccc3)c2C(=O)c2ccccc2)s1 [4-Benzoyl-1-(4-(2-(1,3-dioxo-1,3-diphenylpropan-2-ylidene)hydrazinyl)phenyl)-5-phenyl-N-(5-sulphamoyl-1,3,4-thiadiazol-2-yl)-1H-pyrazole-3-carboxamide (13)]",4800,1420,1020,3180,700,1000
"NS(=O)(=O)c1nnc(NC(=O)c2nn(-c3ccc(/N=N/c4ccc(O)cc4)cc3)c(-c3ccccc3)c2C(=O)c2ccccc2)s1 [4-Benzoyl-1-(4-((4-hydroxyphenyl)diazenyl)phenyl)-5-phenyl-N-(5-sulphamoyl-1,3,4-thiadiazol-2-yl)-1H-pyrazole-3-carboxamide (9)]",230,30,95,18,200,800
"CCOC(=O)C(=NNc1ccc(-n2nc(C(=O)Nc3nnc(S(N)(=O)=O)s3)c(C(=O)c3ccccc3)c2-c2ccccc2)cc1)C(=O)OCC [Diethyl 2-(2-(4-(4-benzoyl-5-phenyl-3-(5-sulphamoyl-1,3,4-thiadiazol-2-ylcarbamoyl)-1H-pyrazol-1-yl)phenyl)hydrazono)malonate (16)]",380,70,300,65,850,1000
"CCOC(=O)/C(=N/Nc1ccc(-n2nc(C(=O)Nc3nnc(S(N)(=O)=O)s3)c(C(=O)c3ccccc3)c2-c2ccccc2)cc1)C(C)=O [Ethyl 2-(2-(4-(4-benzoyl-5-phenyl-3-(5-sulphamoyl-1,3,4-thiadiazol-2-ylcarbamoyl)-1H-pyrazol-1-yl)phenyl)hydrazono)-3-oxobutanoate (15)]",910,140,1190,125,1210,800
"CC(=O)/C(=N\Nc1ccc(-n2nc(C(=O)Nc3nnc(S(N)(=O)=O)s3)c(C(=O)c3ccccc3)c2-c2ccccc2)cc1)C(=O)c1ccccc1 [4-Benzoyl-1-(4-(2-(1,3-dioxo-1-phenylbutan-2-ylidene)hydrazinyl)phenyl)-5-phenyl-N-(5-sulphamoyl-1,3,4-thiadiazol-2-yl)-1H-pyrazole-3-carboxamide (12)]",1000,370,1530,244,164,160
"CC(=O)Cn1c(C)cc2cc(-n3nc(C(=O)Nc4nnc(S(N)(=O)=O)s4)c(C(=O)c4ccccc4)c3-c3ccccc3)ccc21 [4-Benzoyl-1-(2-methyl-1-(2-oxopropyl)-1H-indol-5-yl)-5-phenyl-N-(5-sulphamoyl-1,3,4-thiadiazol-2-yl)-1H-pyrazole-3-carboxamide (18)]",2400,1740,6670,3920,750,600
"CCOC(=O)/C(=N/Nc1ccc(-n2nc(C(=O)Nc3nnc(S(N)(=O)=O)s3)c(C(=O)c3ccccc3)c2-c2ccccc2)cc1)C(=O)c1ccccc1 [Ethyl 2-(2-(4-(4-benzoyl-5-phenyl-3-(5-sulphamoyl-1,3,4-thiadiazol-2-ylcarbamoyl)-1H-pyrazol-1-yl)phenyl)hydrazono)-3-oxo-3-phenylpropanoate (14)]",800,850,1530,498,1320,1300
"CC(=O)/C(=N\Nc1ccc(-n2nc(C(=O)Nc3nnc(S(N)(=O)=O)s3)c(C(=O)c3ccccc3)c2-c2ccccc2)cc1)C(=O)OC(C)(C)C [tert-Butyl 2-(2-(4-(4-benzoyl-5-phenyl-3-(5-sulphamoyl-1,3,4-thiadiazol-2-ylcarbamoyl)-1H-pyrazol-1-yl)phenyl)hydrazono)-3-oxobutanoate (17)]",330,80,310,108,780,200
"NS(=O)(=O)c1nnc(NC(=O)c2nn(-c3ccc(/N=N/c4c(O)ccc5ccccc45)cc3)c(-c3ccccc3)c2C(=O)c2ccccc2)s1 [4-Benzoyl-1-(4-((2-hydroxynaphthalen-1-yl)diazenyl)phenyl)-5-phenyl-N-(5-sulphamoyl-1,3,4-thiadiazol-2-yl)-1H-pyrazole-3-carboxamide (8)]",4750,2100,5830,848,2860,2400
"CC(=O)C(=NNc1ccc(-n2nc(C(=O)Nc3nnc(S(N)(=O)=O)s3)c(C(=O)c3ccccc3)c2-c2ccccc2)cc1)C(C)=O [4-Benzoyl-1-(4-(2-(2,4-dioxopentan-3-ylidene)hydrazinyl)phenyl)-5-phenyl-N-(5-sulphamoyl-1,3,4-thiadiazol-2-yl)-1H-pyrazole-3-carboxamide (11)]",570,130,572,103,330,80

# Reference: BindingDB's records for doi:10.3109/14756366.2010.491795 (Dumlupinar University, 2011)
